{"source": "paper PMC7093416", "about": "“Selective USP7 inhibition elicits cancer cell killing through a p53-dependent mechanism” (Scientific Reports, 2020)", "tested_on": "panel of 484 cancer cell lines", "assay": "PRISM cancer cell line profiling, 5 days", "type": "cell-based", "set-up": "Viability: scale not given here; AUC: unit not given beside the values", "method": "Cancer cell line profiling was performed using the Broad’s PRISM platform. Cell treatment and data analysis were performed as described in Yu et al[42]. Raw Luminex signal was converted to AUC values for each cell line as described. The resulting AUC profile for each compound was modeled against DepMap using the limma package in R[71]. Because hotspot mutation analysis was performed against DepMap, TP53 annotations in Fig. 6c,d are directly from DepMap.", "key": {"[1]": {"conditions": "HEC59_ENDOMETRIUM, pert_dose 6.10E-04"}, "[2]": {"conditions": "HEC108_ENDOMETRIUM, pert_dose 6.10E-04"}, "[3]": {"conditions": "HEC151_ENDOMETRIUM, pert_dose 6.10E-04"}, "[4]": {"conditions": "HEP3B217_LIVER, pert_dose 6.10E-04"}, "[5]": {"conditions": "HEYA8_OVARY, pert_dose 6.10E-04"}, "[6]": {"conditions": "HPAC_PANCREAS, pert_dose 6.10E-04"}, "[7]": {"conditions": "HS294T_SKIN, pert_dose 6.10E-04"}, "[8]": {"conditions": "HS618T_LUNG, pert_dose 6.10E-04"}, "[9]": {"conditions": "HS729_SOFT_TISSUE, pert_dose 6.10E-04"}, "[10]": {"conditions": "HS766T_PANCREAS, pert_dose 6.10E-04"}, "[11]": {"conditions": "HS852T_SKIN, pert_dose 6.10E-04"}, "[12]": {"conditions": "HS939T_SKIN, pert_dose 6.10E-04"}, "[13]": {"conditions": "HSC2_UPPER_AERODIGESTIVE_TRACT, pert_dose 6.10E-04"}, "[14]": {"conditions": "HSC3_UPPER_AERODIGESTIVE_TRACT, pert_dose 6.10E-04"}, "[15]": {"conditions": "HT29_LARGE_INTESTINE, pert_dose 6.10E-04"}, "[16]": {"conditions": "HT55_LARGE_INTESTINE, pert_dose 6.10E-04"}, "[17]": {"conditions": "HUCCT1_BILIARY_TRACT, pert_dose 6.10E-04"}, "[18]": {"conditions": "HUH28_BILIARY_TRACT, pert_dose 6.10E-04"}, "[19]": {"conditions": "IGROV1_OVARY, pert_dose 6.10E-04"}, "[20]": {"conditions": "IPC298_SKIN, pert_dose 6.10E-04"}}, "note": "Values joined by “and” are separate entries in the source; they are usually repeats but may differ in a detail not shown here. Equal values may be shown once."}
{"smiles": "COc1ccc(C2=N[C@@H](c3ccc(Cl)cc3)[C@@H](c3ccc(Cl)cc3)N2C(=O)N2CCNC(=O)C2)c(OC(C)C)c1", "note": "[Nutlin-3A]", "values": [{"measurement": "AUC", "setting": "HEC59_ENDOMETRIUM", "value": 1.062}, {"measurement": "MFI HEC59_ENDOMETRIUM", "setting": "[1]", "value": "10418.5 and 8852 and 7376 and 10636 and 7469"}, {"measurement": "Viability", "setting": "[1]", "value": 1.236}, {"measurement": "AUC", "setting": "HEC108_ENDOMETRIUM", "value": 0.9813}, {"measurement": "MFI HEC108_ENDOMETRIUM", "setting": "[2]", "value": "22169.5 and 21680 and 21571 and 20999 and 14974"}, {"measurement": "Viability", "setting": "[2]", "value": 1.448}, {"measurement": "AUC", "setting": "HEC151_ENDOMETRIUM", "value": 0.8923}, {"measurement": "MFI HEC151_ENDOMETRIUM", "setting": "[3]", "value": "15512 and 13471 and 16551 and 13036 and 13374"}, {"measurement": "Viability", "setting": "[3]", "value": 1.158}, {"measurement": "AUC", "setting": "HEC251_ENDOMETRIUM", "value": 1.051}, {"measurement": "AUC", "setting": "HEC265_ENDOMETRIUM", "value": 0.862}, {"measurement": "Viability", "setting": "HEC265_ENDOMETRIUM, pert_dose 6.10E-04", "value": 1.3422}, {"measurement": "AUC", "setting": "HEP3B217_LIVER", "value": 1.168}, {"measurement": "MFI HEP3B217_LIVER", "setting": "[4]", "value": "4895 and 4355 and 5398 and 5541 and 7085.5"}, {"measurement": "Viability", "setting": "[4]", "value": 1.05}, {"measurement": "AUC", "setting": "HEYA8_OVARY", "value": 0.8732}, {"measurement": "MFI HEYA8_OVARY", "setting": "[5]", "value": "14485.5 and 11701.5 and 12129 and 10947 and 12823"}, {"measurement": "Viability", "setting": "[5]", "value": 1.321}, {"measurement": "AUC", "setting": "HGC27_STOMACH", "value": 1.116}, {"measurement": "AUC", "setting": "HLF_LIVER", "value": 1.153}, {"measurement": "AUC", "setting": "HMC18_BREAST", "value": 1.214}, {"measurement": "MFI HMC18_BREAST", "setting": "HMC18_BREAST, pert_dose 6.10E-04", "value": "29555.5 and 31726 and 28535 and 27291 and 25031.5"}, {"measurement": "AUC", "setting": "HOS_BONE", "value": 1.0473}, {"measurement": "MFI HOS_BONE", "setting": "HOS_BONE, pert_dose 6.10E-04", "value": "25115 and 17203.5 and 23311.5 and 23304 and 24478"}, {"measurement": "Viability", "setting": "HOS_BONE, pert_dose 6.10E-04", "value": 1.257}, {"measurement": "AUC", "setting": "HPAC_PANCREAS", "value": 1.491}, {"measurement": "MFI HPAC_PANCREAS", "setting": "[6]", "value": "14040 and 13836.5 and 12138 and 14386 and 13656"}, {"measurement": "Viability", "setting": "[6]", "value": 1.593}, {"measurement": "AUC", "setting": "HS294T_SKIN", "value": 0.8649}, {"measurement": "MFI HS294T_SKIN", "setting": "[7]", "value": "15509 and 11081.5 and 12624.5 and 16477 and 13812.5"}, {"measurement": "Viability", "setting": "[7]", "value": 1.3841}, {"measurement": "AUC", "setting": "HS618T_LUNG", "value": 1.119}, {"measurement": "MFI HS618T_LUNG", "setting": "[8]", "value": "423.5 and 422.5 and 583 and 491 and 486.5"}, {"measurement": "Viability", "setting": "[8]", "value": 1.131}, {"measurement": "AUC", "setting": "HS729_SOFT_TISSUE", "value": 1.053}, {"measurement": "MFI HS729_SOFT_TISSUE", "setting": "[9]", "value": "5267.5 and 3467.5 and 6111 and 4197 and 4598"}, {"measurement": "Viability", "setting": "[9]", "value": 1.333}, {"measurement": "AUC", "setting": "HS766T_PANCREAS", "value": 1.165}, {"measurement": "MFI HS766T_PANCREAS", "setting": "[10]", "value": "2873 and 4107.5 and 4713 and 3779 and 3684"}, {"measurement": "Viability", "setting": "[10]", "value": 0.8691}, {"measurement": "AUC", "setting": "HS852T_SKIN", "value": 0.95}, {"measurement": "MFI HS852T_SKIN", "setting": "[11]", "value": "952 and 665.5 and 666.5 and 706 and 781.5"}, {"measurement": "Viability", "setting": "[11]", "value": 1.404}, {"measurement": "AUC", "setting": "HS939T_SKIN", "value": 0.8847}, {"measurement": "MFI HS939T_SKIN", "setting": "[12]", "value": "1676 and 1756.5 and 2260 and 2253 and 2240"}, {"measurement": "Viability", "setting": "[12]", "value": 0.6815}, {"measurement": "AUC", "setting": "HS944T_SKIN", "value": 1.082}, {"measurement": "AUC", "setting": "HSC2_UPPER_AERODIGESTIVE_TRACT", "value": 0.986}, {"measurement": "MFI HSC2_UPPER_AERODIGESTIVE_TRACT", "setting": "[13]", "value": "16228 and 12093.5 and 8568 and 11207.5 and 10414"}, {"measurement": "Viability", "setting": "[13]", "value": 1.409}, {"measurement": "AUC", "setting": "HSC3_UPPER_AERODIGESTIVE_TRACT", "value": 1.141}, {"measurement": "MFI HSC3_UPPER_AERODIGESTIVE_TRACT", "setting": "[14]", "value": "19468 and 21785 and 24258 and 21275 and 18776"}, {"measurement": "Viability", "setting": "[14]", "value": 1.0036}, {"measurement": "AUC", "setting": "HT29_LARGE_INTESTINE", "value": 1.34}, {"measurement": "MFI HT29_LARGE_INTESTINE", "setting": "[15]", "value": "15605 and 16428.5 and 18104 and 14824 and 17298"}, {"measurement": "Viability", "setting": "[15]", "value": 1.215}, {"measurement": "AUC", "setting": "HT55_LARGE_INTESTINE", "value": 1.149}, {"measurement": "MFI HT55_LARGE_INTESTINE", "setting": "[16]", "value": "18343 and 20659.5 and 20881.5 and 14879 and 18638"}, {"measurement": "Viability", "setting": "[16]", "value": 1.081}, {"measurement": "AUC", "setting": "HT144_SKIN", "value": 0.8778}, {"measurement": "AUC", "setting": "HT1080_SOFT_TISSUE", "value": 0.7842}, {"measurement": "AUC", "setting": "HT1376_URINARY_TRACT", "value": 1.193}, {"measurement": "AUC", "setting": "HUCCT1_BILIARY_TRACT", "value": 1.095}, {"measurement": "MFI HUCCT1_BILIARY_TRACT", "setting": "[17]", "value": "24976 and 22701 and 21301.5 and 24041 and 22645"}, {"measurement": "Viability", "setting": "[17]", "value": 1.1214}, {"measurement": "AUC", "setting": "HUH6_LIVER", "value": 1.038}, {"measurement": "MFI HUH6_LIVER", "setting": "HUH6_LIVER, pert_dose 6.10E-04", "value": "2954 and 3148.5 and 3422 and 2906 and 2817"}, {"measurement": "Viability", "setting": "HUH6_LIVER, pert_dose 6.10E-04", "value": 1.443}, {"measurement": "AUC", "setting": "HUH7_LIVER", "value": 1.414}, {"measurement": "MFI HUH7_LIVER", "setting": "HUH7_LIVER, pert_dose 6.10E-04", "value": "2519 and 3872.5 and 2817 and 4186 and 2978"}, {"measurement": "Viability", "setting": "HUH7_LIVER, pert_dose 6.10E-04", "value": 1.154}, {"measurement": "AUC", "setting": "HUH28_BILIARY_TRACT", "value": 1.075}, {"measurement": "MFI HUH28_BILIARY_TRACT", "setting": "[18]", "value": "10419.5 and 14552 and 18877 and 11771 and 16814"}, {"measurement": "Viability", "setting": "[18]", "value": 1.064}, {"measurement": "AUC", "setting": "HUPT3_PANCREAS", "value": 1.108}, {"measurement": "MFI HUPT3_PANCREAS", "setting": "HUPT3_PANCREAS, pert_dose 6.10E-04", "value": "6399 and 3235.5 and 3378 and 3719 and 5662"}, {"measurement": "AUC", "setting": "IALM_LUNG", "value": 1.093}, {"measurement": "MFI IALM_LUNG", "setting": "IALM_LUNG, pert_dose 6.10E-04", "value": "15214 and 17539 and 16640 and 15373 and 14718"}, {"measurement": "Viability", "setting": "IALM_LUNG, pert_dose 6.10E-04", "value": 0.9343}, {"measurement": "AUC", "setting": "IGR1_SKIN", "value": 0.9397}, {"measurement": "MFI IGR1_SKIN", "setting": "IGR1_SKIN, pert_dose 6.10E-04", "value": "9685 and 12749 and 10992 and 10674 and 10187.5"}, {"measurement": "Viability", "setting": "IGR1_SKIN, pert_dose 6.10E-04", "value": 1.096}, {"measurement": "AUC", "setting": "IGR37_SKIN", "value": 1.088}, {"measurement": "Viability", "setting": "IGR37_SKIN, pert_dose 6.10E-04", "value": 0.7539}, {"measurement": "AUC", "setting": "IGROV1_OVARY", "value": 0.9652}, {"measurement": "MFI IGROV1_OVARY", "setting": "[19]", "value": "16733 and 14037 and 9860 and 14121 and 11292"}, {"measurement": "Viability", "setting": "[19]", "value": 1.232}, {"measurement": "AUC", "setting": "IM95_STOMACH", "value": 0.8918}, {"measurement": "AUC", "setting": "IPC298_SKIN", "value": 1.102}, {"measurement": "MFI IPC298_SKIN", "setting": "[20]", "value": "24999 and 31830 and 20542 and 28455.5 and 32422"}, {"measurement": "Viability", "setting": "[20]", "value": 1.1324}, {"measurement": "AUC", "setting": "ISHIKAWAHERAKLIO02ER_ENDOMETRIUM", "value": 1.148}]}
